Broadly, the EC50 is the concentration needed to bring the measured effect to its halfway point.

The target of the assay is T1, recombinant human pancreatic GLK (Homo sapiens, UniProt P35557).
T1 sequence (P35557 1-465): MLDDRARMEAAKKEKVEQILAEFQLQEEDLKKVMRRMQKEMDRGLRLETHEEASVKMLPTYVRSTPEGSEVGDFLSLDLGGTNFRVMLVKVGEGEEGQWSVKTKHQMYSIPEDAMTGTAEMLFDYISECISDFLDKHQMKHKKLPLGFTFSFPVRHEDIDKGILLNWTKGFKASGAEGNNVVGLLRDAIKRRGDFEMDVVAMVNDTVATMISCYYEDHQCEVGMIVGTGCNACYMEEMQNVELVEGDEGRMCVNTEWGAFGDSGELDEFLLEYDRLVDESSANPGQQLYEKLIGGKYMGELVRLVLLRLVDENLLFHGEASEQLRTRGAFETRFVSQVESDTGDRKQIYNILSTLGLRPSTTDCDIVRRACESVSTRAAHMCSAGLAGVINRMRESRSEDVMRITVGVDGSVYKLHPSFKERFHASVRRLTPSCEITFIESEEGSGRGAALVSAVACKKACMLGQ
The assay can be described thus: biochemical.
On to `N#Cc1ccc(NC(=O)[C@H](CN2CC(O)C2)Oc2ncnc3c2cnn3-c2c(Cl)cccc2Cl)nc1` [Example 234, (2S)—N-(5-cyano-2-pyridyl)-2-[1-(2,6-dichlorophenyl)pyrazolo[3,4-d]pyrimidin-4-yl]oxy-3-(3-hydroxyazetidin-1-yl)propanamide], for which the EC50 was found to be 210 nM.

With `N#Cc1ccc(NC(=O)[C@H](COCCO)Oc2ncnc3c2cnn3-c2c(Cl)cccc2Cl)nc1` [Example 235, (2S)—N-(5-cyano-2-pyridyl)-2-[1-(2,6-dichlorophenyl)pyrazolo[3,4-d]pyrimidin-4-yl]oxy-3-(2-hydroxyethoxy)propanamide], the EC50 was 400 nM. For `C[C@H](CO)OC[C@H](Oc1ncnc2c1cnn2-c1c(C#N)cccc1C#N)C(=O)Nc1ccc(Cl)cn1` [Example 236, (2S)—N-(5-chloro-2-pyridyl)-2-[1-(2,6-dicyanophenyl)pyrazolo[3,4-d]pyrimidin-4-yl]oxy-3-[(1R)-2-hydroxy-1-methyl-ethoxy]propanamide], the EC50 worked out at 740 nM. As for `N#Cc1cccc(Cl)c1-n1ncc2c(O[C@@H](COCCO)C(=O)Nc3ccc(F)cn3)ncnc21` [Example 237, (2S)-2-[1-(2-chloro-6-cyano-phenyl)pyrazolo[3,4-d]pyrimidin-4-yl]oxy-N-(5-fluoro-2-pyridyl)-3-(2-hydroxyethoxy)propanamide], the figure is 470 nM; as for `N#Cc1cccc(Cl)c1-n1ncc2c(O[C@@H](COCCO)C(=O)Nc3ccccn3)ncnc21` [Example 238, (2S)-2-[1-(2-chloro-6-cyano-phenyl)pyrazolo[3,4-d]pyrimidin-4-yl]oxy-3-(2-hydroxyethoxy)-N-(2-pyridyl)propanamide], 420 nM. As for `Cc1cnc(NC(=O)[C@H](CN2CC(O)C2)Oc2ncnc3c2cnn3-c2c(Cl)cccc2C#N)cn1` [Example 239, (2S)-2-[1-(2-chloro-6-cyano-phenyl)pyrazolo[3,4-d]pyrimidin-4-yl]oxy-3-(3-hydroxyazetidin-1-yl)-N-(5-methylpyrazin-2-yl)propanamide], the figure is 490 nM; as for `N#Cc1cccc(Cl)c1-n1ncc2c(O[C@@H](CN3CC(O)C3)C(=O)Nc3ccc(Cl)cn3)ncnc21` [Example 240, (2S)-2-[1-(2-chloro-6-cyano-phenyl)pyrazolo[3,4-d]pyrimidin-4-yl]oxy-N-(5-chloro-2-pyridyl)-3-(3-hydroxyazetidin-1-yl)propanamide], 450 nM. As for `O=C(Nc1ccccn1)[C@H](CN1CC(O)C1)Oc1ncnc2c1cnn2-c1ncccc1Cl` [Example 241, (2S)-2-[1-(3-chloro-2-pyridyl)pyrazolo[3,4-d]pyrimidin-4-yl]oxy-3-(3-hydroxyazetidin-1-yl)-N-(2-pyridyl)propanamide], the figure is 350 nM. Take `N#Cc1cccc(Cl)c1-n1ncc2c(O[C@@H](CN3CC(O)C3)C(=O)Nc3ccc(F)cn3)ncnc21` [Example 242, (2S)-2-[1-(2-chloro-6-cyano-phenyl)pyrazolo[3,4-d]pyrimidin-4-yl]oxy-N-(5-fluoro-2-pyridyl)-3-(3-hydroxyazetidin-1-yl)propanamide]: the EC50 was found to be 220 nM. As for `O=C(Nc1ccc(F)cn1)[C@H](CN1CC(O)C1)Oc1ncnc2c1cnn2-c1ncccc1Cl` [Example 243, (2S)-2-[1-(3-chloro-2-pyridyl)pyrazolo[3,4-d]pyrimidin-4-yl]oxy-N-(5-fluoro-2-pyridyl)-3-(3-hydroxyazetidin-1-yl)propanamide], the figure is 570 nM; as for `O=C(Nc1ccc(F)cn1)[C@H](COCCO)Oc1ncnc2c1cnn2-c1c(F)cccc1Cl` [Example 244, (2S)-2-[1-(2-chloro-6-fluoro-phenyl)pyrazolo[3,4-d]pyrimidin-4-yl]oxy-N-(5-fluoro-2-pyridyl)-3-(2-hydroxyethoxy)propanamide], 330 nM. With `C[C@H](CO)OC[C@H](Oc1ncnc2c1cnn2-c1ccccc1Cl)C(=O)Nc1ccc(F)cn1` [Example 245, (2S)-2-[1-(2-chlorophenyl)pyrazolo[3,4-d]pyrimidin-4-yl]oxy-N-(5-fluoro-2-pyridyl)-3-[(1R)-2-hydroxy-1-methyl-ethoxy]propanamide], the EC50 was determined as 470 nM. Consider `C[C@H](CO)OC[C@H](Oc1ncnc2c1cnn2-c1c(Cl)cccc1C#N)C(=O)Nc1ccc(F)cn1` [Example 246, (2S)-2-[1-(2-chloro-6-cyano-phenyl)pyrazolo[3,4-d]pyrimidin-4-yl]oxy-N-(5-fluoro-2-pyridyl)-3-[(1R)-2-hydroxy-1-methyl-ethoxy]propanamide], for which the EC50 was 220 nM.

For `Cc1cnc(NC(=O)[C@H](CO[C@H](C)CO)Oc2ncnc3c2cnn3-c2ccccc2Cl)cn1` [Example 247, (2S)-2-[1-(2-chlorophenyl)pyrazolo[3,4-d]pyrimidin-4-yl]oxy-3-[(1R)-2-hydroxy-1-methyl-ethoxy]-N-(5-methylpyrazin-2-yl)propanamide], the EC50 is 590 nM.

`O=C(Nc1ccc(F)cn1)[C@H](COCCO)Oc1ncnc2c1cnn2-c1ccccc1Cl` [Example 248, (2S)-2-[1-(2-chlorophenyl)pyrazolo[3,4-d]pyrimidin-4-yl]oxy-N-(5-fluoro-2-pyridyl)-3-(2-hydroxyethoxy)propanamide]: the EC50 is 640 nM.

Turning to `Cc1cnc(NC(=O)[C@H](CN2CC(O)C2)Oc2ncnc3c2cnn3-c2ncccc2Cl)s1` [Example 249, (2S)-2-[1-(3-chloro-2-pyridyl)pyrazolo[3,4-d]pyrimidin-4-yl]oxy-3-(3-hydroxyazetidin-1-yl)-N-(5-methylthiazol-2-yl)propanamide], the EC50 stood at 590 nM.

Turning to `O=C(Nc1ccccn1)[C@H](COCCO)Oc1ncnc2c1cnn2-c1c(Cl)cccc1Cl` [Example 250, (2S)-2-[1-(2,6-dichlorophenyl)pyrazolo[3,4-d]pyrimidin-4-yl]oxy-3-(2-hydroxyethoxy)-N-(2-pyridyl)propanamide], the EC50 turned out to be 230 nM.

Take `C[C@H](CO)OC[C@H](Oc1ncnc2c1cnn2-c1c(Cl)cccc1C#N)C(=O)Nc1ccc(C#N)cn1` [Example 251, (2S)-2-[1-(2-chloro-6-cyano-phenyl)pyrazolo[3,4-d]pyrimidin-4-yl]oxy-N-(5-cyano-2-pyridyl)-3-[(1R)-2-hydroxy-1-methyl-ethoxy]propanamide]: the half-maximal effective concentration (EC50) was found to be 350 nM. As for `C[C@H](CO)OC[C@H](Oc1ncnc2c1cnn2-c1ccccc1Cl)C(=O)Nc1ccc(C#N)cn1` [Example 252, (2S)-2-[1-(2-chlorophenyl)pyrazolo[3,4-d]pyrimidin-4-yl]oxy-N-(5-cyano-2-pyridyl)-3-[(1R)-2-hydroxy-1-methyl-ethoxy]propanamide], the figure is 450 nM.

The values above are taken from patent US8143263B2, “Therapeutic agents” (Astrazeneca AB, priority 2008, dated 2012).
